EC50 data for 17 compounds are collected here from US10344019B2 (priority 2010, dated 2019).

pEC50: −log10 of the molar value.

Assay in all cases: microbe, parasite or virus in culture
What all share (type): cell-based

Experiment [1] relates to HCV 3a RLuc cells (NS5A chimeric genotype 1b Con1 replicon with consensus genotype 3a NS5A gene). Particulars: Hepatitis C virus, read-out: 3a, genotype 3a NS5A chimeric 1b Con1 replicon. In outline: (§1)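 Replicon cells stably carrying the listed RLuc-encoding dicistronic replicons were seeded and treated with DMSO serial dilutions of compound (10 mM stocks) diluted into culture medium. After 72 h, cells were lysed and Renilla luciferase activity measured. EC50 was derived by non-linear regression.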
(Replicon systems follow genome replication, usually without infectious particles.)

The test system of experiment [2] is HCV 1b RLuc cells (dicistronic genotype 1b Con1 replicon, RLuc reporter). Particulars: Hepatitis C virus, read-out: 1b (nM). An outline of the steps: (§2)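 Replicons used: genotype 1b Con1, 1a H77, 2a JFH-1, and a 2a JFH-1 chimera with J6-strain NS5A (M31 present), all dicistronic.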
Experiment [3] has as its system HCV 1a RLuc cells (dicistronic genotype 1a H77 replicon, RLuc reporter). Particulars: Hepatitis C virus, genotype 1a H77 replicon, RLuc reporter; read-out: 1a. An outline of the steps: as §2
The test system of experiment [4] is HCV 2a JFH-1 Rluc cells (dicistronic genotype 2a JFH-1 replicon, RLuc reporter). Particulars: Hepatitis C virus, genotype 2a JFH-1 replicon, RLuc reporter; read-out: 2a JFH. An outline of the steps:
as §2

Experiment [5] has as its system HCV 4a Rluc cells (NS5A chimeric genotype 1b Con1 replicon with genotype 4a NS5A gene). Particulars: Hepatitis C virus, read-out: 4a. An outline of the steps: as §1

`COC(=O)N[C@H](C(=O)N1CCC[C@H]1c1nc2c([nH]1)-c1ccc(-c3ccc4cc(-c5cnc([C@@H]6CCCN6C(=O)[C@H](NC(=O)C6CCOCC6)c6ccccc6)[nH]5)ccc4c3)cc1CC2)C(C)C` [Example 246]: the pEC50 in experiment [1], in experiment [3], in experiment [4] and in experiment [5] was 9.00 to 12.00 each time. The EC50 in experiment [2] was found to be 0.045 nM.
As to `COC(=O)N[C@H](C(=O)N1CCC[C@H]1c1ncc(-c2ccc3cc(-c4ccc(-c5cnc([C@@H]6CCCN6C(=O)OC(C)(C)C)[nH]5)cc4)ccc3c2)[nH]1)C(C)C` [Example 247], the pEC50 in experiment [1] is less than 8.30; in experiment [3], 7.36 to 9.00; in experiment [4] it was less than 7.36; in experiment [5] it was 9.00 to 12.00. The EC50 in experiment [2] amounted to 0.758 nM.
For the compound `COC(=O)NC(C(=O)N[C@H](c1ncc(-c2ccc3c(c2)C(F)(F)c2cc(-c4ccc5nc([C@@H]6CCCN6C(=O)[C@@H](NC(=O)OC)[C@@H](C)OC)[nH]c5c4)ccc2-3)[nH]1)C(C)C)C(C)C` (stereo partly shown) [Example 248], the pEC50 in experiment [1] is less than 8.30; in experiment [3], 7.36 to 9.00; in experiment [4] it was 7.36 to 9.00; in experiment [5], 9.00 to 12.00. Besides, the EC50 in experiment [2] is 0.024 nM.
With `COC(=O)N[C@H](C(=O)N1CCC[C@H]1c1ncc(-c2ccc3c(c2)C(=C(C)C)c2cc(-c4cnc([C@@H]5CCCN5C(=O)[C@@H](NC(=O)OC)C(C)C)[nH]4)ccc2-3)[nH]1)C(C)C` [Example 249], the pEC50 in experiment [1] is less than 8.30; in experiment [3], 7.36 to 9.00; in experiment [4], 7.36 to 9.00; in experiment [5] it was 9.00 to 12.00. In experiment [2], the EC50 is 0.014 nM.
For `COC(=O)N[C@H](C(=O)N1CCC[C@H]1c1ncc(-c2ccc3c(c2)sc2cc(-c4cnc([C@@H]5CCCN5C(=O)[C@H](NC(=O)OC)c5ccccc5)[nH]4)ccc23)[nH]1)C(C)C` [Example 250], the pEC50 in experiment [1], in experiment [3], in experiment [4] and in experiment [5] was 9.00 to 12.00 throughout. Also, in experiment [2], the EC50 was 0.004 nM.
On to `COC(=O)N[C@H](C(=O)N1CCC[C@H]1c1nc2ccc(-c3ccc4c(c3)sc3cc(-c5cnc([C@@H]6CCCN6C(=O)[C@H](NC(=O)OC)c6ccccc6)[nH]5)ccc34)cc2[nH]1)[C@@H](C)OC` [Example 251], for which the pEC50 in experiment [1], in experiment [3], in experiment [4] and in experiment [5] was 9.00 to 12.00 each time. Besides, in experiment [2], the EC50 was 0.01 nM.
As to `COC(=O)N[C@H](C(=O)N1CCC[C@H]1c1ncc(-c2ccc(-c3cc4ccc(-c5c[nH]c([C@@H]6CCCN6C(=O)[C@H](NC(=O)OC)c6ccccc6)n5)cc4s3)cc2)[nH]1)C(C)C` [Example 252], the pEC50 in experiment [1], in experiment [3], in experiment [4] and in experiment [5] was 9.00 to 12.00 in each case. Besides, in experiment [2], the EC50 amounted to 0.004 nM.
For `COC(=O)N[C@H](C(=O)N1CCC[C@H]1c1nc(-c2ccc3cc(-c4ccc(-c5cnc([C@@H]6CCCN6C(=O)[C@H](NC(=O)OC)c6ccccc6)[nH]5)cc4)sc3c2)c[nH]1)C(C)C` [Example 253], the pEC50 in experiment [1], in experiment [3], in experiment [4] and in experiment [5] was 9.00 to 12.00 each time. In addition, in experiment [2], the EC50 was found to be 0.005 nM.
As for `COC(=O)N[C@H](C(=O)N1CCC[C@H]1c1ncc(-c2ccc3cc(-c4ccc(-c5cnc([C@@H]6CC(O)CN6C(=O)[C@H](NC(=O)OC)c6ccccc6)[nH]5)cc4)ccc3c2)[nH]1)C(C)C` (stereo partly shown) [Example 256], the pEC50 in experiment [1], in experiment [3], in experiment [4] and in experiment [5] was 9.00 to 12.00 each time. Moreover, the EC50 in experiment [2] amounted to 0.015 nM.
In the case of `COC(=O)N[C@H](C(=O)N1CCC[C@H]1c1nc(-c2ccc3cc(-c4ccc5c(ccc6nc([C@@H]7CCCN7C(=O)[C@H](NC(=O)OC)c7ccccc7)[nH]c65)c4)sc3c2)c[nH]1)[C@H](C)OC` [Example 257], the pEC50 in experiment [1], in experiment [3], in experiment [4] and in experiment [5] was 9.00 to 12.00 each time. In experiment [2], the EC50 came out at 0.013 nM.
Take `COC(=O)N[C@H](C(=O)N1CCC[C@H]1c1ncc(-c2ccc3c(c2)C(F)(F)c2cc(-c4ccc5nc([C@@H]6CCCN6C(=O)[C@H](NC(=O)OC)c6ccccc6)[nH]c5c4)ccc2-3)[nH]1)C(C)C` [Example 258]: the pEC50 in experiment [1], in experiment [3], in experiment [4] and in experiment [5] was 9.00 to 12.00 throughout. Further, the EC50 in experiment [2] came out at 0.005 nM.
Regarding `COC(=O)N[C@H](C(=O)N1CCC[C@H]1c1ncc(-c2ccc3c(c2)C(F)(F)c2cc(-c4ccc5nc([C@@H]6CCCN6C(=O)[C@H](NC(=O)OC)c6ccccc6)[nH]c5c4)ccc2-3)[nH]1)C1CCOCC1` [Example 259], the pEC50 in experiment [1], in experiment [3], in experiment [4] and in experiment [5] was 9.00 to 12.00 each time. Moreover, in experiment [2], the EC50 came out at 0.014 nM.
Take `COC(=O)N[C@H](C(=O)N1CCC[C@H]1c1ncc(-c2ccc3cc(-c4ccc(-c5cnc([C@@H]6CCCN6C(=O)[C@H](NC(=O)C6CCCO6)c6ccccc6)[nH]5)cc4)ccc3c2)[nH]1)C(C)C` (stereo partly shown) [Example 261]: the pEC50 in experiment [1], in experiment [3], in experiment [4] and in experiment [5] was 9.00 to 12.00 each time. Also, the EC50 in experiment [2] amounted to 0.011 nM.
In the case of `COC(=O)NC(C(=O)N1CC2(CC2)C[C@H]1c1ncc(-c2ccc(-c3ccc4cc(-c5cnc([C@@H]6CCCN6C(=O)[C@H](NC(=O)OC)c6ccccc6)[nH]5)ccc4c3)cc2)[nH]1)[C@@H](C)OC` (stereo partly shown) [Example 262], the pEC50 in experiment [1], in experiment [3], in experiment [4] and in experiment [5] was 9.00 to 12.00 in each case. Moreover, the EC50 in experiment [2] amounted to 0.008 nM.
In the case of `COC(=O)N[C@H](C(=O)N1CC(F)(F)C[C@H]1c1ncc(-c2ccc(-c3ccc4cc(-c5cnc([C@@H]6CCCN6C(=O)[C@H](NC(=O)OC)c6ccccc6)[nH]5)ccc4c3)cc2)[nH]1)[C@@H](C)OC` [Example 263], the pEC50 in experiment [1], in experiment [3], in experiment [4] and in experiment [5] was 9.00 to 12.00 throughout. The EC50 in experiment [2] was determined as 0.006 nM.
Regarding `COC(=O)NC(C(=O)N1CCC[C@H]1c1ncc(-c2ccc3c(c2)C(F)(F)c2cc(-c4ccc5nc([C@@H]6CCCN6C(=O)[C@@H](NC(=O)OC)[C@@H](C)OC)[nH]c5c4)ccc2-3)[nH]1)C(C)C` (stereo partly shown) [Example 264], the pEC50 in experiment [1] is 8.30 to 9.00; in experiment [3], 9.00 to 12.00; in experiment [4], 7.36 to 9.00; in experiment [5], 9.00 to 12.00. For the same compound, the EC50 in experiment [2] is 0.006 nM.
For the compound `COC(=O)N[C@H](C(=O)N1CCC[C@H]1c1ncc(-c2ccc3cc(-c4ccc(-c5cnc([C@@H]6CCCN6C(=O)[C@@H](NC(=O)OC)[C@@H](C)OC(C)(C)C)[nH]5)cc4)ccc3c2)[nH]1)C(C)C` [Example 265], the pEC50 in experiment [1] is 8.30 to 9.00; in experiment [3], 7.36 to 9.00; in experiment [4] it was 7.36 to 9.00; in experiment [5] it was 9.00 to 12.00. Also, the EC50 in experiment [2] was determined as 0.042 nM.
